In brackets after ≈: the same amount, converted by molar mass.
Tests used:
[1] = Solubility assay in water, 0.1% hydrochloric acid and methanol; assay type: physicochemical
Description: The solubility was characterized by:
The term “very soluble” refers to that 1 g (mL) of solute can be dissolved in less than 1 mL of solvent;
The term “freely soluble” refers to that 1 g (mL) of solute can be dissolved in from 1 mL to 10 mL, not including 10 mL of solvent;
The term “soluble” refers to that 1 g (mL) of solute can be dissolved in from 10 mL to 30 mL, not including 30 mL of solvent;
The term “sparingly soluble” refers to that 1g (mL) of solute can be dissolved in from 30 mL to 100 mL, not including 100 mL of solvent;
The term “slightly soluble” refers to that 1g (mL) of solute can be dissolved in from 100 mL to 1000 mL, not including 1000 mL of solvent;
The term “very slightly soluble” refers to that 1g (mL) of solute can be dissolved in from 1000 mL to 10000 mL, not including 10000 mL of solvent;
The term “practically insoluble or insoluble” refers to that 1g (mL) of solute cannot be dissolved completely in 10000 mL of solvent.

[2] = Pharmacokinetics assay in rats; assay type: in vivo, SD rats; details: SD rats, intragastric, 50 mg/Kg (as free acid), 50 mg/kg
Description: The compounds of the present disclosure were administrated intragastrically to rats to determine the drug concentration in plasma at different time points by HPLC-UV. The pharmacokinetic behavior of the compounds of the present disclosure was studied and evaluated in rats. […] Healthy adult SD rats, male and female in half, were purchased from SINO-BRITSH SIPPR/BK LAB.ANIMAL LTD., Colo., License number: SCXK (Shanghai) 2003-0002 The test compound was diluted with 1% sodium carboxymethyl cellulose to 5 mg/mL (calculated as the free acid form) of suspension before use. Healthy adult SD rats, male and female in half, were divided into 23 groups. […] The plasma samples were stored at −20° C. until analysis. The rats were fed 2 hours after administration. […] Then the mixture was mixed for 3 minute using a vortexer and centrifuged for 10 minutes at 13,500 rpm. 40 μL of the supernatant was analyzed by HPLC-UV. The compartmental model of pharmacokinetics was fitted for the test compounds and the major pharmacokinetic parameters were calculated in which Cmax and tmax were the actually measured values.

human TPOR = molecular target: T1, human TPOR (Homo sapiens, UniProt P40238); assay: Proliferation effect on BAF3-TPOR cell (CCK-8); assay type: cell-based; details: rate relative to rhTPO positive control
T1 construct: host or cells: BaF3 (murine pro-B cells), stably transfected, G418-selected
T1 sequence (P40238 26-635): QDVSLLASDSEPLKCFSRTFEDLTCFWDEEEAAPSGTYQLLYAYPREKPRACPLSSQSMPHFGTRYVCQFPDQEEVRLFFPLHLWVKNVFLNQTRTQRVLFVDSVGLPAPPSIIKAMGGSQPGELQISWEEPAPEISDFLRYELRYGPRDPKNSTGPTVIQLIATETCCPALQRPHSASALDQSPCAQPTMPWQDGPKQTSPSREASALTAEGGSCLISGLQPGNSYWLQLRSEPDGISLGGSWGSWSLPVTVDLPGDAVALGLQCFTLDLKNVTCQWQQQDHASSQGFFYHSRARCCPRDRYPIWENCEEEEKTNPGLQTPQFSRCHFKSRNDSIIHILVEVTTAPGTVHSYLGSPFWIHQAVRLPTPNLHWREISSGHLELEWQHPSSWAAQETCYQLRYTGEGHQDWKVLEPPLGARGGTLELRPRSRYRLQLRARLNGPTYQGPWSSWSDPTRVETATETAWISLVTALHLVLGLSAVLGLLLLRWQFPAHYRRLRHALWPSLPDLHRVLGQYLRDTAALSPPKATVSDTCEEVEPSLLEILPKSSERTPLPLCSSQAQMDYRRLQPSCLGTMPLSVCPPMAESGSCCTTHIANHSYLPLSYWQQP
Description: (1) Plasmid constructs: based on the TPO receptor (TPOR) sequence information from Entrez (Gene ID: 4325, Refseq: NM_005373), dual-site mutation was performed on EX-B0010-M02 plasmid by using QuikChange® Multi Site Directed Mutagenesis Kit (Stratagene). The sequence of primers containing multi-sites mutation was designed as follows: […]
The E. coli DH5α competent cells were transformed with mutated plasmid, and positive colonies were picked up through ampicillin selection. The mutation result was confirmed by sequence analysis.
(2) BAF3-TPOR stable transfected cell line: the following method was used to construct the BaF3 cell which stably over-expressed functional human TPOR. The successfully mutated EX-B0010-M02 plasmid ([…]) which expressed human TPOR and screening gene neomycin was transfected into wild-type BaF3 cells (1×10^7) by electroporation at 250V for 18 ms using an electric pulse generator (Electro Square Porator ECM830, BTX Division of Genetronic, Inc. US). The stable transfected cells BAF3-TPOR were selected with G418 (Gibco, US), then incubated in RPMI1640 medium plus 10% FBS (Gibco, US), […] G418, 5 ng/mL, rmIL-3 (Chemicon, US).
(1) Washing cells by centrifugation: a suitable amount of cell suspension was centrifuged at 1000 rpm for 5 minutes, and the supernatant was discarded. 10 mL of cell culture media without IL-3 was added. Then the resulting cell suspension was centrifuged at 1000 rpm for 5 minutes, and the supernatant was discarded.
(2) 1 mL of cell culture media without IL-3 was added to beat upon them to equality, and the number of a suitable amount of cell suspension was counted after dilution.
(3) According to the result of the cell counting, a cell suspension in a concentration of 100,000 cell/mL was prepared.
(4) 100 μL of cell suspension was transferred to each well of 96-well culture plate, and there were 3 parallel wells, that is, there were a blank control group (B), a negative control group (N), a positive control group of TPO (P) and a test compound group (S).
(5) The test compound was dissolved in DMSO to prepare a 10 mM stock solution, and then the solution was diluted with RPMI 1640 medium into a series of test samples at different concentration: 30 μM, 10 μM, 3 μM, 1 μM, 0.3 μM, 0.1 μM, 0.03 μM, 0.01 μM, 0.003 μM, 0.001 μM.
(6) 10 μL of test compound solution was transferred to each well respectively; 1 μL of rhTPO (10 ng/mL) was added to positive control well.
(7) The plates were incubated in an incubator at 5% CO2 and 37° C. for 24 hours.
(8) After incubation, 10 μL of CCK-8 solution was added to each well and the plates were incubated in the incubator for another 24 hours.
(9) OD value was detected at 450 nm by VICTORS (Perkin Elmer 1420-120) plate reader.
(1) The proliferation rate was calculated as follows: Rate=[(S−B)/(P−B)]*100%
S: OD value of wells which contain test compound.
B: OD value of blank control wells
P: OD value of positive control wells
(2) The EC50 value was calculated by Origin 7.0 software.

For CC1=NN(c2ccc3c(c2)CCC3)C(=O)/C1=N\Nc1cccc(-c2cccc(C(=O)O)c2)c1O [Example 3, (Z)-2′-hydroxy-3′-[N′-(1-indan-5-yl-3-methyl-5-oxo-1,5-dihydro-pyrazol-4-ylidene)-hydrazino]-biphenyl-3-carboxylic acid bis-(piperazine)], the solubility ([1]; 0.1% hydrochloric acid) was <1 µg/mL, the solubility ([1]; methanol) was 1534 µg/mL (≈ 3.38 mM) and the solubility ([1]; water) was 2290 µg/mL (≈ 5.04 mM). The “Area Under Curve AUC” value [2] was 842 ± 185 µg·h/mL, the “Half-Life t½” value [2] was 8.87 ± 0.78 h and the “Mean Residence Time MRT” value [2] was 13.0 ± 0.9 h. The “Plasma Conc. Cmax” value [2] was 79000 ± 9300 ng/mL, the CL/F ([2]; both sexes, SD, rat, plasma, po, read-out: Clearance CL/F (converted)) was 1.03 mL/min/kg and the Tmax ([2]; both sexes, SD, rat, plasma, po, read-out: Time to peak Tmax) was 5.5 ± 1 h.
For CC1=NN(c2ccc3c(c2)C(C)(C)CC3)C(=O)/C1=N\Nc1cccc(-c2ccc(C(=O)O)o2)c1O [Example 5, (Z)-5-(3-{N′-[1-(3,3-dimethyl-indan-5-yl)-3-methyl-5-oxo-1,5-dihydro-pyrazol-4-ylidene]-hydrazino}-2-hydroxy-phenyl)-furan-2-carboxylic acid bis-(diethylamine)], the EC50 (human TPOR) was 19 nM, the “Area Under Curve AUC” value [2] was 255 ± 95 µg·h/mL and the “Clearance CL/F” value [2] was 3.67 ± 1.2 mL/min/kg. For the same molecule, the “Half-Life t½” value [2] was 15.0 ± 6.2 h, the “Mean Residence Time MRT” value [2] was 20.8 ± 9.1 h and the “Plasma Conc. Cmax” value [2] was 19800 ± 3800 ng/mL. For the same molecule, the “Time to peak Tmax” value [2] was 3.25 ± 1.5 h.
In the case of CC1=NN(c2ccc3c(c2)CCCC3)C(=O)/C1=N\Nc1cccc(-c2ccc(C(=O)O)o2)c1O [Example 9, (Z)-5-(2-hydroxy-3-{N′-[3-methyl-5-oxo-1-(5,6,7,8-tetrahydro-naphthalen-2-yl)-1,5-dihydro-pyrazol-4-ylidene]-hydrazino}-phenyl)-furan-2-carboxylic acid bis-(diethylamine)], the EC50 (human TPOR) is reported as 14 nM, the “Area Under Curve AUC” value [2] is reported as 146 ± 69.7 µg·h/mL and the “Clearance CL/F” value [2] is reported as 6.52 ± 2.42 mL/min/kg. The “Half-Life t½” value [2] was 9.65 ± 2.48 h, the “Plasma Conc. Cmax” value [2] was 21200 ± 10400 ng/mL and the “Time to peak Tmax” value [2] was 2.88 ± 2.59 h.
In the case of CC1=NN(c2ccc3c(c2)CCCC3)C(=O)/C1=N\Nc1cccc(-c2ccc(C(=O)O)o2)c1O [Example 13, (Z)-5-(2-hydroxy-3-{N′-[3-methyl-5-oxo-1-(5,6,7,8-tetrahydro-naphthalen-2-yl)-1,5-dihydro-pyrazol-4-ylidene]-hydrazino}-phenyl)-furan-2-carboxylic acid bis-(dibenzylethylenediamine)], the EC50 (human TPOR) is reported as 20 nM, the “Area Under Curve AUC” value [2] is reported as 42.8 ± 33.2 µg·h/mL and the “Clearance CL/F” value [2] is reported as 27.2 ± 13.8 mL/min/kg. The “Half-Life t½” value [2] was 5.70 ± 2.50 h, the “Plasma Conc. Cmax” value [2] was 8100 ± 3350 ng/mL and the “Time to peak Tmax” value [2] was 1.38 ± 1.11 h.
In the case of CC1=NN(c2ccc3c(c2)CCCC3)C(=O)/C1=N\Nc1cccc(-c2ccc(C(=O)O)o2)c1O [Example 15, (Z)-5-(2-hydroxy-3-{N′-[3-methyl-5-oxo-1-(5,6,7,8-tetrahydro-naphthalen-2-yl)-1,5-dihydro-pyrazol-4-ylidene]-hydrazino}-phenyl)-furan-2-carboxylic acid bis-(L-arginine)], the EC50 (human TPOR) is reported as 16 nM, the “Area Under Curve AUC” value [2] is reported as 168 ± 118 µg·h/mL and the “Clearance CL/F” value [2] is reported as 12.6 ± 16.6 mL/min/kg. For the same molecule, the “Half-Life t½” value [2] was 6.56 ± 3.80 h, the “Plasma Conc. Cmax” value [2] was 23300 ± 13600 ng/mL and the “Time to peak Tmax” value [2] was 2.0 ± 1.16 h.
For CC1=NN(c2ccc3c(c2)CCC3)C(=O)/C1=N\Nc1cccc(-c2ccc(C(=O)O)o2)c1O [Example 18, (Z)-5-{2-hydroxy-3-[N′-(1-indan-5-yl-3-methyl-5-oxo-1,5-dihydro-pyrazol-4-ylidene)-hydrazino]-phenyl}-furan-2-carboxylic acid bis-(piperazine)], the solubility ([1]; 0.1% hydrochloric acid) was <1 µg/mL, the solubility ([1]; methanol) was 6096 µg/mL (≈ 13.7 mM) and the solubility ([1]; water) was 2741 µg/mL (≈ 6.17 mM). For the same molecule, the “Area Under Curve AUC” value [2] was 119 ± 102 µg·h/mL, the “Clearance CL/F” value [2] was 10.5 ± 5.83 mL/min/kg and the “Half-Life t½” value [2] was 3.99 ± 1.60 h. For the same molecule, the “Mean Residence Time MRT” value [2] was 5.31 ± 2.64 h, the “Plasma Conc. Cmax” value [2] was 23300 ± 11600 ng/mL and the “Time to peak Tmax” value [2] was 1.63 ± 1.63 h.
In the case of CC1=NN(c2ccc3c(c2)CCC3)C(=O)/C1=N\Nc1cccc(-c2csc(C(=O)O)c2)c1O [Example 21, (Z)-4-{2-hydroxy-3-[N′-(1-indan-5-yl-3-methyl-5-oxo-1,5-dihydro-pyrazol-4-ylidene)-hydrazino]-phenyl}-thiophene-2-carboxylic acid bis-(piperazine)], the solubility ([1]; 0.1% hydrochloric acid) is reported as <1 µg/mL, the solubility ([1]; methanol) is reported as 2416 µg/mL (≈ 5.25 mM) and the solubility ([1]; water) is reported as 814 µg/mL (≈ 1.77 mM). The “Area Under Curve AUC” value [2] was 380 ± 109 µg·h/mL, the “Clearance CL/F” value [2] was 2.33 ± 0.67 mL/min/kg and the “Half-Life t½” value [2] was 6.86 ± 0.48 h. The “Mean Residence Time MRT” value [2] was 8.61 ± 0.31 h, the “Plasma Conc. Cmax” value [2] was 61100 ± 1380 ng/mL and the “Time to peak Tmax” value [2] was 5.5 ± 1.0 h.

Reference: US9120762B2, “Salts of bicyclo-substituted pyrazolon azo derivatives, preparation method and use thereof” (Jiangsu Hengrui Medicine Co., Ltd., priority 2009, dated 2015)
